From patent US20090149455A1, “Use of Triazolopyrimidines for Controlling Plant Diseases on Legumes” (Bayer CropScience AG, priority 2005, published 2009) come the findings set out here.

The nature of the data set: log p. Format: physicochemical.

Like-named read-outs stand apart in the source and are kept apart here.

`CC(Nc1c(-c2c(F)cc(F)cc2F)c(Cl)nc2ncnn12)C(C)(C)C` (stereo not shown) [Example 67] registered a log p of 3.53.

Take `C[C@H](Nc1c(-c2c(F)cc(F)cc2F)c(Cl)nc2ncnn12)C(C)(C)C` [Example 68]: the log p worked out at 3.54.

As to `CC(Nc1c(-c2c(F)cccc2Cl)c(Cl)nc2ncnn12)C(C)(C)C` (stereo not shown) [Example 69], the log p is listed as 3.58.

Take `C[C@@H](Nc1c(-c2c(F)cccc2Cl)c(Cl)nc2ncnn12)C(C)(C)C` [Example 70]: the log p amounted to 3.58.

Consider `C[C@H](Nc1c(-c2c(F)cccc2Cl)c(Cl)nc2ncnn12)C(C)(C)C` [Example 71], for which the log p turned out to be 3.63.

For the compound `C[C@@H](Nc1c(-c2cc(F)ccc2F)c(Cl)nc2ncnn12)C(C)(C)C` [Example 72], the log p amounted to 3.38.

`CC(C)C(C)Nc1c(-c2c(F)cc(F)cc2F)c(Cl)nc2ncnn12` (stereo not shown) [Example 73]: the log p was 3.2.

`CC(C)C(C)Nc1c(-c2ccccc2)c(Cl)nc2ncnn12` (stereo not shown) [Example 74] had a log p of 3.14.

With `CC(C)[C@H](C)Nc1c(-c2c(F)cc(F)cc2F)c(Cl)nc2ncnn12` [Example 77], the log p stood at 3.17.

Regarding `CC(C)[C@@H](C)Nc1c(-c2cc(F)ccc2F)c(Cl)nc2ncnn12` [Example 78], the log p is on record as 3.05.

In the case of `Cc1nc2ncnn2c(N[C@H](C)C(C)C)c1-c1c(F)cccc1Cl` [Example 79], the log p turned out to be 2.7.

`CC(C)CC(C)Nc1c(-c2c(F)cc(F)cc2F)c(Cl)nc2ncnn12` (stereo not shown) [Example 80] yielded a log p of 3.59.

The compound `CC(C)CC(C)Nc1c(-c2ccc(F)cc2F)c(Cl)nc2ncnn12` (stereo not shown) [Example 81] showed a log p of 3.53.

`CNc1c(-c2c(F)cccc2F)c(Cl)nc2ncnn12` [Example 82] displayed a log p of 1.84.

`CNc1c(-c2c(F)cc(F)cc2F)c(Cl)nc2ncnn12` [Example 83] returned a log p of 2.01.

For `CNc1c(-c2c(F)c(F)c(F)c(F)c2F)c(Cl)nc2ncnn12` [Example 84], the log p was 2.41.

`CN(C)c1c(-c2ccccc2F)c(Cl)nc2ncnn12` [Example 85] displayed a log p of 2.18.

`CNc1c(-c2ccccc2F)c(Cl)nc2ncnn12` [Example 86] registered a log p of 1.86.

Compound `CN(C)c1c(-c2c(F)cccc2F)c(Cl)nc2ncnn12` [Example 87] registered a log p of 2.19.

`C=C(C)CN(CC)c1c(-c2c(F)cc(F)cc2F)c(Cl)nc2ncnn12` [Example 90] had a log p of 3.6.

In turn, `C=C(C)CNc1c(-c2ccccc2F)c(Cl)nc2ncnn12` [Example 91] had a log p of 2.48.

The compound `C=C(C)CN(CC)c1c(-c2ccc(F)cc2F)c(Cl)nc2ncnn12` [Example 93] had a log p of 3.54.

In turn, `C=C(C)CNc1c(-c2c(F)cc(F)cc2F)c(Cl)nc2ncnn12` [Example 94] yielded a log p of 2.63.

Compound `C=C(C)CN(CC)c1c(-c2c(F)cccc2F)c(Cl)nc2ncnn12` [Example 95] yielded a log p of 3.42.

`C=C(C)CN(C)c1c(-c2c(F)cc(C(F)(F)F)cc2Cl)c(Cl)nc2ncnn12` [Example 96] had a log p of 4.05.

Regarding `C=C(C)CNc1c(-c2ccc(F)cc2F)c(Cl)nc2ncnn12` [Example 97], the log p is reported as 2.6.

Turning to `C=C(C)CN(C)c1c(-c2ccc(F)cc2F)c(Cl)nc2ncnn12` [Example 98], the log p was determined as 3.21.

Compound `C=C(C)CN(CC)c1c(-c2c(Cl)cccc2Cl)c(Cl)nc2ncnn12` [Example 99] registered a log p of 3.92.

For `C=C(C)CN(CC)c1c(-c2cc(C(F)(F)F)ccc2Cl)c(Cl)nc2ncnn12` [Example 100], the log p is on record as 4.12.

Consider `C=C(C)CN(CC)c1c(-c2cccc3c2OC(F)(F)O3)c(Cl)nc2ncnn12` [Example 101], for which the log p is on record as 3.9.

For `C=C(C)CN(CC)c1c(-c2cccc(C(F)(F)F)c2Cl)c(Cl)nc2ncnn12` [Example 102], the log p is given as 4.12.

Compound `C=C(C)CNc1c(-c2c(F)c(F)c(F)c(F)c2F)c(Cl)nc2ncnn12` [Example 104] showed a log p of 3.09.

The compound `C=C(C)CN(CC)c1c(-c2ccccc2Cl)c(Cl)nc2ncnn12` [Example 105] displayed a log p of 3.69.

`C=C(C)CN(CC)c1c(-c2ccccc2)c(Cl)nc2ncnn12` [Example 106] gave a log p of 3.44.

`CC(C)(C)CNc1c(-c2ccccc2)c(Cl)nc2ncnn12` [Example 109]: the log p worked out at 3.17.

For the compound `Fc1c(F)c(F)c(-c2c(Cl)nc3ncnn3c2NCC(F)(F)F)c(F)c1F` [Example 113], the log p was 3.

In the case of `CC(C)CNc1c(-c2ccccc2Cl)c(Cl)nc2ncnn12` [Example 126], the log p was 2.97.

The compound `CC(C)CNc1c(-c2ccccc2)c(Cl)nc2ncnn12` [Example 127] gave a log p of 2.79.

`CC(C)Nc1c(-c2ccccc2Cl)c(Cl)nc2ncnn12` [Example 131] returned a log p of 2.65.

Compound `CC(C)Nc1c(-c2ccc(F)c(Cl)c2)c(Cl)nc2ncnn12` [Example 140] displayed a log p of 2.9.

As for `CC(C)Nc1c(-c2ccccc2F)c(Cl)nc2ncnn12` [Example 141], the log p worked out at 2.42.

Compound `CC(C)Nc1c(-c2ccc(F)cc2Cl)c(Cl)nc2ncnn12` [Example 142] gave a log p of 2.79.

`CC(C)Nc1c(-c2c(F)c(F)c(F)c(F)c2F)c(Cl)nc2ncnn12` [Example 144] returned a log p of 3.05.

`CC(C)Nc1c(-c2ccc(F)cc2F)c(Cl)nc2ncnn12` [Example 145] showed a log p of 2.56.

For `CC(C)Nc1c(-c2ccccc2)c(Cl)nc2ncnn12` [Example 147], the log p was 2.45.

Compound `CCCCNc1c(-c2ccc(F)cc2F)c(Cl)nc2ncnn12` [Example 149] yielded a log p of 2.9.

Compound `CCCNc1c(-c2ccccc2F)c(Cl)nc2ncnn12` [Example 150] came in with a log p of 2.43.

The compound `CCCNc1c(-c2c(F)c(F)c(F)c(F)c2F)c(Cl)nc2ncnn12` [Example 152] yielded a log p of 3.05.

Compound `CC(C)(C)Nc1c(-c2c(F)cc(C(F)(F)F)cc2Cl)c(Cl)nc2ncnn12` [Example 153] registered a log p of 3.9.

`CC(C)(C)Nc1c(-c2c(F)cc(F)cc2F)c(Cl)nc2ncnn12` [Example 154] showed a log p of 3.05.

Take `CN(C)c1c(-c2c(F)c(F)c(F)c(F)c2F)c(Cl)nc2ncnn12` [Example 155]: the log p came to 2.74.

In the case of `CC1CCN(c2c(-c3c(F)cc(F)cc3F)c(Cl)nc3ncnn23)CC1` [Example 156, 5-Chloro-7-(4-methylpiperidin-1-yl)-6-(2,4,6-trifluorophenyl)[1,2,4]triazolo[1,5-a]-pyrimidine], under “read-out: log p”, the log p was 3.6.

Consider `Fc1cccc(F)c1-c1c(Cl)nc2ncnn2c1N1CCCO1` [Example 157], for which the log p is 2.07.

Turning to `CC1CCN(c2c(-c3c(F)cccc3Cl)c(Cl)nc3ncnn23)CC1` [Example 158], the log p came to 3.68.

Compound `Fc1cc(F)c(-c2c(Cl)nc3ncnn3c2N2CCC(C(F)(F)F)CC2)c(F)c1` [Example 160] gave a log p of 3.41.

With `Cc1cc(C)c(-c2c(Cl)nc3ncnn3c2N2CCOCC2)c(C)c1` [Example 161], the log p was 2.8.

`CC1CN(c2c(-c3ccccc3F)c(Cl)nc3ncnn23)CC(C)O1` (stereo not shown) [Example 162] returned a log p of 2.67.

In turn, `Fc1ccccc1-c1c(Cl)nc2ncnn2c1N1CCCC1` [Example 163] had a log p of 2.49.

In turn, `Fc1ccccc1-c1c(Cl)nc2ncnn2c1N1CCCCC1` [Example 164] displayed a log p of 3.01.

The compound `Fc1ccccc1-c1c(Cl)nc2ncnn2c1N1CCSCC1` [Example 165] registered a log p of 2.68.

For the compound `Fc1ccccc1-c1c(Cl)nc2ncnn2c1N1CCC(C(F)(F)F)CC1` [Example 166], the log p amounted to 3.23.

On to `Fc1cc(F)c(-c2c(Cl)nc3ncnn3c2N2CCCCC2)c(F)c1` [Example 173], for which the log p was found to be 3.53.

The compound `CN1CCN(c2c(-c3c(F)cc(C(F)(F)F)cc3Cl)c(Cl)nc3ncnn23)CC1` [Example 174] registered a log p of 1.68.

As for `Fc1cc(C(F)(F)F)cc(Cl)c1-c1c(Cl)nc2ncnn2c1N1CCOCC1` [Example 175], the log p was determined as 3.07.

The compound `Fc1cc(C(F)(F)F)cc(Cl)c1-c1c(Cl)nc2ncnn2c1N1CCCC1` [Example 176] displayed a log p of 3.5.

Turning to `Fc1cc(C(F)(F)F)cc(Cl)c1-c1c(Cl)nc2ncnn2c1N1CCCCC1` [Example 177], the log p amounted to 4.03.

`Fc1cc(C(F)(F)F)cc(Cl)c1-c1c(Cl)nc2ncnn2c1N1CCC(C(F)(F)F)CC1` [Example 178] gave a log p of 4.18.

With `Fc1cc(C(F)(F)F)cc(Cl)c1-c1c(Cl)nc2ncnn2c1N1CC=CCC1` [Example 179], the log p is reported as 3.85.

For `CC1CC(C)CN(c2c(-c3c(F)cc(C(F)(F)F)cc3Cl)c(Cl)nc3ncnn23)C1` (stereo not shown) [Example 180], the log p worked out at 4.79.

Take `CC1CCCN(c2c(-c3c(F)cc(C(F)(F)F)cc3Cl)c(Cl)nc3ncnn23)C1` (stereo not shown) [Example 181]: the log p came to 4.46.

As for `CC1CCN(c2c(-c3c(F)cc(C(F)(F)F)cc3Cl)c(Cl)nc3ncnn23)CC1` [Example 182], the log p came to 4.37.

With `CC1=CCCN(c2c(-c3c(F)cc(C(F)(F)F)cc3Cl)c(Cl)nc3ncnn23)C1` [Example 183], the log p is recorded as 4.23.

For `CC1CCCN1c1c(-c2ccc(F)cc2F)c(Cl)nc2ncnn12` (stereo not shown) [Example 184], the log p was found to be 2.99.

With `Fc1ccc(-c2c(Cl)nc3ncnn3c2N2CCCC2)c(F)c1` [Example 185], the log p came to 2.62.

With `Fc1ccc(-c2c(Cl)nc3ncnn3c2N2CC=CCC2)c(F)c1` [Example 186], the log p came to 2.94.

For `CC1CC(C)CN(c2c(-c3ccc(F)cc3F)c(Cl)nc3ncnn23)C1` (stereo not shown) [Example 187], the log p came to 3.9.

`CC1CCCCN1c1c(-c2ccc(F)cc2F)c(Cl)nc2ncnn12` (stereo not shown) [Example 188] registered a log p of 3.44.

`CC1CCCN(c2c(-c3ccc(F)cc3F)c(Cl)nc3ncnn23)C1` (stereo not shown) [Example 189] showed a log p of 3.52.

`CC1CCN(c2c(-c3ccc(F)cc3F)c(Cl)nc3ncnn23)CC1` [Example 190] yielded a log p of 3.54.
